{"source": "paper PMC12656239", "about": "“Aryl Hydrocarbon Receptor-Mediated Disruption of Intestinal Epithelial Barrier Integrity by Dioxin Isomers” (Toxics, 2025)", "biological_target": "aryl hydrocarbon receptor (AhR) (Homo sapiens, UniProt P35869)", "experiment": "EROD induction in Caco-2 cells (endogenous AhR), abolished by AhR antagonist", "type": "cell-based"}
{"smiles": "Clc1cc2c(cc1Cl)Oc1cc(Cl)c(Cl)cc1O2", "note": "[2,3,7,8-TCDD, 2,3,7,8-tetrachlorodibenzo-p-dioxin]", "values": [{"measurement": "EC50", "result": 0.102, "unit": "nM"}]}
